# Measurements taken from US20020019389A1, “Urea derivative useful as an anti-cancer agent and process for preparing same” (priority 2000, published 2002).
# Like-named read-outs stand apart in the source and are kept apart here.
# What was measured:
# [1] = Acute toxicity test, single oral administration; type: in vivo; details: mouse, in vivo, single administration per oral, 7-day observation
# Procedure: (§1) (1) Test Animal: SPF ICR mouse
# (§2) (2) Age of the Test Animal: 4 weeks from acquisition 5 weeks from the start of administration
# (§3) (3) Gender and Number of Test Animal: respective 18 he and she-mice (6 groups in each of he and she-mice, 3 mice per group)
# (§4) (4) Breeding Environment: Temperature 22±3° C., Relative humidity […], Illumination 150-300 Lux
# (§5) (5) Method of Administration: Single administration per oral
# (§6) (6) Items to be Observed: General symptoms, appearance, weight and autopsy of dead mice
# (§7) (8) Medium: 0.5% Tween 80
# [2] = tested on: A549 (lung cancer) cell line; assay: Anti-cancer activity in vitro, A549 cell line; type: cell-based
# Procedure: (§8) The anti-cancer activity and toxicity of the compound according to the present invention were evaluated in vitro using A549 (lung cancer), SUN638 (gastric cancer), HCT116 (rectal cancer), and A431 (ovarian cancer) cell lines. The above four (4) cell lines were purchased from Cancer Research Institute, Seoul National University College of Medicine. […] The experiment was basically carried out according to the process described in Monks, A., et al, Journal of National Cancer Institute. 83: 757-766 (1991) and the results are represented in the following Tables 2 and 3.
# [3] = tested on: SUN638 (gastric cancer) cell line; assay: Anti-cancer activity in vitro, SUN638 cell line; type: cell-based
# Procedure: as §8
# SPF ICR mouse [4] = assay: Acute toxicity test, single oral administration; type: in vivo; details: single administration per oral, 7-day observation
# Procedure: as §1, §2, §3, §4, §5, §6, §7
# [5] = tested on: HCT116 (rectal cancer) cell line; assay: Anti-cancer activity in vitro, HCT116 cell line; type: cell-based
# Procedure: as §8
# [6] = tested on: A431 (ovarian cancer) cell line; assay: Anti-cancer activity in vitro, A431 cell line; type: cell-based
# Procedure: as §8
# SPF ICR mouse [7] = details: clinically used comparison drugs, not among the test compounds of b552; species and route not given; cited from earlier work
# A431 cell line = assay: Anti-cancer activity in vitro, A431 cell line; type: cell-based; details: Homo sapiens, A-431, read-out: LC50
# Procedure: as §8
# [8] = Homo sapiens, A549, read-out: LC50
# [9] = Homo sapiens, A549 Cell Line, read-out: GI50
# [10] = Homo sapiens, HCT-116, read-out: LC50
# [11] = Homo sapiens, HCT-116, HCT116 Cell Line, read-out: GI50
# [12] = SUN638 Cell Line, read-out: GI50
# [13] = Homo sapiens, A-431, A431 Cell Line, read-out: GI50
# [14] = both sexes, male and female ICR mice
compound,measurement,setting,value
"C=CCN(CC=C)c1nc(N(CC=C)CC=C)nc(N2CCN(C(=O)n3ccnc3)CC2)n1 [Compound 61, 1-[(1H-imidazol-1-yl)carbonyl]-4-(4,6-bis-diallylamino-[1,3,5]triazin-2-yl)piperazine]",LD50 at 7 day,[1]; female ICR mice,1140 mg/kg
same,LD50 at 7 day,[1]; male ICR mice,2330 mg/kg
same,GI50,"[2]; Homo sapiens, A549",6.02 µg/mL
same,LC50,[2]; [8],> 100 µg/mL
same,GI50,[3],2.95 µg/mL
same,LC50,[3]; read-out: LC50,> 100 µg/mL
"COc1cc2c(cc1OC)C(c1ccccc1)CN(C(=O)n1ccnc1)CC2 (stereo not shown) [Compound 66, 3-[(1H-imidazol-1-yl)carbonyl]-7,8-dimethoxy-1-phenyl-2,3,4,5-tetrahydro-3H-benzazepine]",LD50,SPF ICR mouse [4]; female ICR mice,2000 (female) mg/kg
same,LD50,SPF ICR mouse [4]; male ICR mice,1921 (male) mg/kg
same,GI50,[2]; A549 Cell Line,0.38 µg/mL
same,LC50,[2]; A549 Cell Line,>100 µg/mL
same,TGI50,[2]; A549 Cell Line,54.95 µg/mL
same,GI50,[5]; HCT116 Cell Line,0.19 µg/mL
same,LC50,[5]; HCT116 Cell Line,>100 µg/mL
same,TGI50,[5]; HCT116 Cell Line,7.76 µg/mL
same,GI50,[3]; SUN638 Cell Line,0.21 µg/mL
same,LC50,[3]; SUN638 Cell Line,>100 µg/mL
same,TGI50,[3]; SUN638 Cell Line,1.73 µg/mL
same,GI50,[6]; A431 Cell Line,0.28 µg/mL
same,LC50,[6]; A431 Cell Line,>100 µg/mL
same,TGI50,[6]; A431 Cell Line,100 µg/mL
"COc1cc2c(cc1OC)C(c1ccc(F)cc1)CN(C(=O)n1ccnc1)CC2 (stereo not shown) [Compound 70, 3-[(1H-imidazol-1-yl)carbonyl]-7,8-dimethoxy-1-(4-fluoro)phenyl-2,3,4,5-tetrahydro-3H-benzazepine]",LD50,SPF ICR mouse [4]; male and female ICR mice,2000 (male and female) mg/kg
same,GI50,[2]; A549 Cell Line,1.12 µg/mL
same,LC50,[2]; A549 Cell Line,>100 µg/mL
same,TGI50,[2]; A549 Cell Line,100 µg/mL
same,GI50,[5]; HCT116 Cell Line,1.31 µg/mL
same,LC50,[5]; HCT116 Cell Line,>100 µg/mL
same,TGI50,[5]; HCT116 Cell Line,23.98 µg/mL
same,GI50,[3]; SUN638 Cell Line,1.78 µg/mL
same,LC50,[3]; SUN638 Cell Line,>100 µg/mL
same,TGI50,[3]; SUN638 Cell Line,7.24 µg/mL
COc1cccc2c1C(=O)c1c(O)c3c(c(O)c1C2=O)C[C@@](O)(C(=O)CO)C[C@@H]3O[C@H]1C[C@H](N)[C@H](O)[C@H](C)O1 [Doxorubicin],LD50,SPF ICR mouse [7],21.1 mg/kg
"Cc1cc(C)cc(N2CCN(C(=S)n3ccnc3)CC2)c1 [Compound 56, 1-[(1H-imidazol-1-yl)thiocarbonyl]-4-(3,5-dimethylphenyl) piperazine]",LC50,[2]; [8],> 100 µg/mL
same,GI50,[2]; [9],2.04 µg/mL
same,LC50,[5]; [10],> 100 µg/mL
same,GI50,[5]; [11],1.47 µg/mL
same,GI50,[3]; [12],1.34 µg/mL
same,LC50,[3]; read-out: LC50,> 100 µg/mL
same,TGI50,[6]; A431 Cell Line,28.84 µg/mL
same,GI50,[6]; [13],1.31 µg/mL
same,LC50,A431 cell line,> 100 µg/mL
"O=C(N1CCN(c2nc(NCC3CC3)nc(NCC3CC3)n2)CC1)n1ccnc1 [Compound 62, 1-[(1H-imidazol-1-yl)carbonyl]-4-(4,6-bis-cyclopropylmethylamino-[1,3,5]triazin-2-yl)piperazine]",LD50 at 7 day,[1]; female ICR mice,466 mg/kg
same,LD50 at 7 day,[1]; male ICR mice,354 mg/kg
same,GI50,"[2]; Homo sapiens, A549",0.48 µg/mL
same,LC50,[2]; [8],> 100 µg/mL
same,GI50,"[5]; Homo sapiens, HCT-116",0.38 µg/mL
same,LC50,[5]; [10],> 100 µg/mL
same,GI50,[3],0.61 µg/mL
same,LC50,[3]; read-out: LC50,> 100 µg/mL
"COc1cc2c(cc1OC)C(c1ccccc1)CN(C(=S)n1ccnc1)CC2 (stereo not shown) [Compound 67, 3-[(1H-imidazol-1-yl)thiocarbonyl]-7,8-dimethoxy-1-phenyl-2,3,4,5-tetrahydro-3H-benzazepine]",GI50,[2]; A549 Cell Line,0.66 µg/mL
same,LC50,[2]; A549 Cell Line,>100 µg/mL
same,TGI50,[2]; A549 Cell Line,17.78 µg/mL
same,GI50,[5]; HCT116 Cell Line,0.23 µg/mL
same,LC50,[5]; HCT116 Cell Line,>100 µg/mL
same,TGI50,[5]; HCT116 Cell Line,13.48 µg/mL
same,GI50,[3]; SUN638 Cell Line,1.51 µg/mL
same,LC50,[3]; SUN638 Cell Line,>100 µg/mL
same,TGI50,[3]; SUN638 Cell Line,8.12 µg/mL
same,GI50,[6]; A431 Cell Line,0.70 µg/mL
same,LC50,[6]; A431 Cell Line,>100 µg/mL
same,TGI50,[6]; A431 Cell Line,30.19 µg/mL
"COc1cc2c(cc1OC)C(c1ccccc1)CN(C(=O)Nc1nc3ccccc3nc1OC)CC2 (stereo not shown) [Compound 2, 3-[N-(2-methoxyquinoxalin-3-yl)aminocarbonyl]-7,8-dimethoxy-1-phenyl-2,3,4,5-tetrahydro-3H-benzazepine]",LD50,SPF ICR mouse [4]; male and female ICR mice,2000 (male and female) mg/kg
N.N.O=C([O-])C1(C(=O)[O-])CCC1.[Pt+2] [Carboplatin],LD50,SPF ICR mouse [7],150 mg/kg
"C=CCNc1nc(NCC=C)nc(N2CCN(C(=O)NC(c3ccccc3)c3ccccc3)CC2)n1 [Compound 38, 1-[(diphenylmethyl)aminocarbonyl]-4-(4,6-bis-allylamino-[1,3,5]triazin-2-yl)piperazine]",LD50 at 7 day,[1]; [14],2000 mg/kg
same,LC50,[2]; [8],> 100 µg/mL
same,GI50,[2]; [9],1.28 µg/mL
same,LC50,[5]; [10],> 100 µg/mL
same,GI50,[5]; [11],1.28 µg/mL
same,GI50,[3]; [12],2.75 µg/mL
same,LC50,[3]; read-out: LC50,> 100 µg/mL
same,TGI50,[6]; A431 Cell Line,7.24 µg/mL
same,GI50,[6]; [13],1.41 µg/mL
same,LC50,A431 cell line,> 100 µg/mL
"COc1nc2ccccc2nc1NC(=O)N1CCN(C(c2ccccc2)c2ccccc2)CC1 [Compound 48, 1-[N-(2-methoxyquinoxalin-3-yl)aminocarbonyl]-4-(diphenylmethyl)piperazine]",LC50,[2]; [8],> 100 µg/mL
same,GI50,[2]; [9],1.07 µg/mL
same,LC50,[5]; [10],> 100 µg/mL
same,GI50,[5]; [11],0.67 µg/mL
same,GI50,[3]; [12],1.62 µg/mL
same,LC50,[3]; read-out: LC50,> 100 µg/mL
same,TGI50,[6]; A431 Cell Line,100 µg/mL
same,GI50,[6]; [13],1.65 µg/mL
same,LC50,A431 cell line,> 100 µg/mL
"Cc1cc(C)cc(N2CCN(C(=O)n3ccnc3)CC2)c1 [Compound 55, 1-[(1H-imidazol-1-yl)carbonyl]-4-(3,5-dimethylphenyl)piperazine]",GI50,"[2]; Homo sapiens, A549",1.77 µg/mL
same,LC50,[2]; [8],> 100 µg/mL
same,GI50,"[5]; Homo sapiens, HCT-116",2.08 µg/mL
same,LC50,[5]; [10],> 100 µg/mL
same,GI50,[3],1.09 µg/mL
same,LC50,[3]; read-out: LC50,> 100 µg/mL
same,TGI50,[6]; A431 Cell Line,67.60 µg/mL
same,GI50,"[6]; Homo sapiens, A-431",1.38 µg/mL
same,LC50,A431 cell line,> 100 µg/mL
"Cc1cc(C)cc(N2CCN(C(=O)n3ccnc3)CC2)c1.Cl [Compound 57, 1-[(1H-imidazol-1-yl)carbonyl]-4-(3,5-dimethylphenyl)piperazine hydrochloride]",LD50 at 7 day,[1]; [14],1160 mg/kg
same,GI50,"[2]; Homo sapiens, A549",1.77 µg/mL
same,LC50,[2]; [8],> 100 µg/mL
same,GI50,"[5]; Homo sapiens, HCT-116",1.34 µg/mL
same,LC50,[5]; [10],> 100 µg/mL
same,GI50,[3],1.69 µg/mL
same,LC50,[3]; read-out: LC50,> 100 µg/mL
same,TGI50,[6]; A431 Cell Line,8.31 µg/mL
same,GI50,"[6]; Homo sapiens, A-431",1.51 µg/mL
same,LC50,A431 cell line,> 100 µg/mL
